# Measurements published in ChEMBL document CHEMBL2034954, “Synthesis and antimycobacterial activity of novel 1,3-dimethylisocyanurate derivatives” (Eur J Med Chem, 2012).
# Columns and labels:
# Type in all cases: functional
# [1] = system: Mycobacterium tuberculosis; assay: Antitubercular activity against Mycobacterium tuberculosis H37Rv after […] by radiometric growth assay
# [2] = system: Mycobacterium tuberculosis; assay: Bacteriostatic activity against Mycobacterium tuberculosis H37Rv at 1 ug/mL assessed as growth index after 3 days by radiometric growth assay (reference value: 210 growth index)
# [3] = system: Mycobacterium tuberculosis; assay: Bacteriostatic activity against Mycobacterium tuberculosis H37Rv at 1 ug/mL assessed as growth index after 4 days by radiometric growth assay (reference value: 210 growth index)
# [4] = system: Mycobacterium tuberculosis; assay: Bacteriostatic activity against Mycobacterium tuberculosis H37Rv at 1 ug/mL assessed as growth index after 5 days by radiometric growth assay (reference value: 210 growth index)
# [5] = system: Mycobacterium tuberculosis; assay: Bacteriostatic activity against Mycobacterium tuberculosis H37Rv at 1 ug/mL assessed as growth index after 7 days by radiometric growth assay (reference value: 210 growth index)
# [6] = system: Mycobacterium tuberculosis; assay: Bacteriostatic activity against Mycobacterium tuberculosis H37Rv at 1 ug/mL assessed as growth index after 10 days by radiometric growth assay (reference value: 210 growth index)
# [7] = system: Mycobacterium tuberculosis; assay: Bacteriostatic activity against Mycobacterium tuberculosis H37Rv at 0.1 ug/mL assessed as growth index after 3 days by radiometric growth assay (reference value: 210 growth index)
# [8] = system: Mycobacterium tuberculosis; assay: Bacteriostatic activity against Mycobacterium tuberculosis H37Rv at 0.1 ug/mL assessed as growth index after 4 days by radiometric growth assay (reference value: 210 growth index)
# [9] = system: Mycobacterium tuberculosis; assay: Bacteriostatic activity against Mycobacterium tuberculosis H37Rv at 0.1 ug/mL assessed as growth index after 5 days by radiometric growth assay (reference value: 210 growth index)
# [10] = system: Mycobacterium tuberculosis; assay: Bacteriostatic activity against Mycobacterium tuberculosis H37Rv at 0.1 ug/mL assessed as growth index after 7 days by radiometric growth assay (reference value: 210 growth index)
# [11] = system: Mycobacterium tuberculosis; assay: Bacteriostatic activity against Mycobacterium tuberculosis H37Rv at 0.5 ug/mL assessed as growth index after 3 days by radiometric growth assay (reference value: 210 growth index)
# [12] = system: Mycobacterium tuberculosis; assay: Bacteriostatic activity against Mycobacterium tuberculosis H37Rv at 0.5 ug/mL assessed as growth index after 4 days by radiometric growth assay (reference value: 210 growth index)
# [13] = system: Mycobacterium tuberculosis; assay: Bacteriostatic activity against Mycobacterium tuberculosis H37Rv at 0.5 ug/mL assessed as growth index after 5 days by radiometric growth assay (reference value: 210 growth index)
# [14] = system: Mycobacterium tuberculosis; assay: Bacteriostatic activity against Mycobacterium tuberculosis H37Rv at 0.5 ug/mL assessed as growth index after 7 days by radiometric growth assay (reference value: 210 growth index)
compound,measurement,setting,value
Cn1c(=O)n(C)c(=O)n(CCCCCCCCCC[S+]([O-])CC(=O)NN)c1=O (stereo not given),MIC,[1],0.5 µg/mL
same,Growth_index,[2],0
same,Growth_index,[3],20
same,Growth_index,[4],22
same,Growth_index,[5],22
same,Growth_index,[6],22
Cn1c(=O)n(C)c(=O)n(CS(=O)(=O)CC(N)=O)c1=O,MIC,[1],1 µg/mL
Cn1c(=O)n(C)c(=O)n(CCCS(=O)(=O)CC(N)=O)c1=O,MIC,[1],1 µg/mL
same,Growth_index,[2],20
same,Growth_index,[3],29
same,Growth_index,[4],39
same,Growth_index,[5],39
same,Growth_index,[6],39
Cn1c(=O)n(C)c(=O)n(CCCCS(=O)(=O)CC(=O)NN)c1=O,MIC,[1],1 µg/mL
same,Growth_index,[2],18
same,Growth_index,[3],34
same,Growth_index,[4],73
same,Growth_index,[5],73
same,Growth_index,[6],>90
Cn1c(=O)n(C)c(=O)n(CCCCCCS(=O)(=O)CC(=O)NN)c1=O,MIC,[1],0.1 µg/mL
same,Growth_index,[7],15
same,Growth_index,[8],27
same,Growth_index,[9],31
same,Growth_index,[10],>90
Cn1c(=O)n(C)c(=O)n(CC(O)CS(=O)(=O)CC(=O)NN)c1=O (stereo not given),MIC,[1],0.1 µg/mL
same,Growth_index,[2],1
same,Growth_index,[3],25
same,Growth_index,[4],30
same,Growth_index,[5],35
same,Growth_index,[6],35
Cn1c(=O)n(C)c(=O)n(CCCCS(=O)(=O)CC(N)=O)c1=O,MIC,[1],1 µg/mL
same,Growth_index,[2],20
same,Growth_index,[3],35
same,Growth_index,[4],54
same,Growth_index,[5],54
same,Growth_index,[6],54
Cn1c(=O)n(C)c(=O)n(CCCCCCS(=O)(=O)CC(N)=O)c1=O,MIC,[1],1 µg/mL
same,Growth_index,[2],5
same,Growth_index,[3],23
same,Growth_index,[4],53
same,Growth_index,[5],>90
Cn1c(=O)n(C)c(=O)n(CCC[S+]([O-])CC(=O)NN)c1=O (stereo not given),MIC,[1],1 µg/mL
same,Growth_index,[2],5
same,Growth_index,[3],5
same,Growth_index,[4],5
same,Growth_index,[5],5
same,Growth_index,[6],55
Cn1c(=O)n(C)c(=O)n(CCC[S+]([O-])CC(N)=O)c1=O (stereo not given),MIC,[1],1 µg/mL
same,Growth_index,[2],7
same,Growth_index,[3],41
same,Growth_index,[4],>90
Cn1c(=O)n(C)c(=O)n(CCCS(=O)(=O)CC(=O)NN)c1=O,MIC,[1],1 µg/mL
same,Growth_index,[2],5
same,Growth_index,[3],18
same,Growth_index,[4],55
same,Growth_index,[5],55
same,Growth_index,[6],55
same,Growth_index,[11],15
same,Growth_index,[12],30
same,Growth_index,[13],>90
Cn1c(=O)n(C)c(=O)n(CCCCCC[S+]([O-])CC(=O)NN)c1=O (stereo not given),MIC,[1],0.5 µg/mL
same,Growth_index,[2],10
same,Growth_index,[3],15
same,Growth_index,[4],15
same,Growth_index,[5],>90
C=CCn1c(=O)n(CC=C)c(=O)n(CC(O)CS(=O)(=O)CC(=O)NN)c1=O (stereo not given),MIC,[1],0.1 µg/mL
Cn1c(=O)n(C)c(=O)n(CC[S+]([O-])CC(=O)NN)c1=O (stereo not given),MIC,[1],0.5 µg/mL
same,Growth_index,[2],10
same,Growth_index,[3],22
same,Growth_index,[4],40
same,Growth_index,[5],50
same,Growth_index,[6],50
same,Growth_index,[11],30
same,Growth_index,[12],>90
Cn1c(=O)n(C)c(=O)n(CCCCCS(=O)(=O)CC(=O)NN)c1=O,MIC,[1],0.5 µg/mL
same,Growth_index,[2],14
same,Growth_index,[3],50
same,Growth_index,[4],50
same,Growth_index,[5],50
same,Growth_index,[6],50
same,Growth_index,[11],12
same,Growth_index,[12],33
same,Growth_index,[13],50
same,Growth_index,[14],>90
Cn1c(=O)n(C)c(=O)n(CCCCCS(=O)(=O)CC(N)=O)c1=O,MIC,[1],1 µg/mL
same,Growth_index,[2],15
same,Growth_index,[3],20
same,Growth_index,[4],23
same,Growth_index,[5],23
same,Growth_index,[6],23
